Test results as given in PubChem BioAssay AID330 (DTP/NCI, 2004).
Where “and” joins values, the source holds several entries; their conditions need not be identical. Identical values can stand only once. Toxic doses and inconclusive results are not listed. The calls were made as follows: active = survival T/C of 150% or more; inactive = T/C below 125% in these data. Peptide text beside a SMILES is read from it. * marks the point of attachment. Cbz = O=C(OCc1ccccc1)*

System: P388 leukemia ip, CD2F1 mice, survival T/C
Experiment: NCI In Vivo Anticancer Drug Screen. Data for tumor model P388 Leukemia (intraperitoneal) in CD2F1 (CDF1) mice
Settings: endpoint: median survival time, higher = longer survival
Method in brief: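 Mice carrying the transplanted tumor received test compound or vehicle. Survival was recorded in each group, and the value is the treated-group measurement divided by that of the vehicle-treated control group.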

[1] = dose: 50.0 mg/kg/injection, schedule: Q01DX005 (ip), vehicle: saline
[2] = dose: 100.0 mg/kg/injection, schedule: Q01DX005 (ip), vehicle: saline
[3] = dose: 200.0 mg/kg/injection, schedule: Q01DX005 (ip), vehicle: saline
[4] = dose: 60.0 mg/kg/injection, schedule: Q01DX005 (ip), vehicle: saline with Tween-80
[5] = dose: 120.0 mg/kg/injection, schedule: Q01DX005 (ip), vehicle: saline with Tween-80
[6] = dose: 240.0 mg/kg/injection, schedule: Q01DX005 (ip), vehicle: saline with Tween-80

Measured: T/C

COc1cccc2c1C(=O)c1c(O)c3c(c(O)c1C2=O)CC(O)(/C(C)=N/NS(=O)(=O)c1ccc(C)cc1)CC3OC1CC(N)C(O)C(C)O1 (stereo not drawn)
inactive: dose: 0.78 mg/kg/injection, schedule: Q01DX009 (ip), vehicle: water 118 % of control | dose: 1.56 mg/kg/injection, schedule: Q01DX009 (ip), vehicle: water 113 % of control
active: dose: 12.5 mg/kg/injection, schedule: Q01DX009 (ip), vehicle: water 153 % of control | dose: 25.0 mg/kg/injection, schedule: Q01DX009 (ip), vehicle: water 179 % of control

CC1(C)CNC(=S)O1
inactive: dose: 6.25 mg/kg/injection, schedule: Q01DX009 (ip), vehicle: Klucel (hydroxypropylcellulose) (HPC) 107 % of control | dose: 12.5 mg/kg/injection, schedule: Q01DX009 (ip), vehicle: Klucel (hydroxypropylcellulose) (HPC) 100 % of control | dose: 25.0 mg/kg/injection, schedule: Q01DX009 (ip), vehicle: Klucel (hydroxypropylcellulose) (HPC) 88 % of control and 89 % of control

COc1ccc2cc1CCNC(=O)C1CCCN1C(=O)C1NCCC1O2 (stereo not drawn)
inactive: dose: 20.0 mg/kg/injection, schedule: Q01DX005 (ip), vehicle: Klucel (hydroxypropylcellulose) (HPC) 92 % of control | dose: 40.0 mg/kg/injection, schedule: Q01DX005 (ip), vehicle: Klucel (hydroxypropylcellulose) (HPC) 104 % of control | dose: 80.0 mg/kg/injection, schedule: Q01DX005 (ip), vehicle: Klucel (hydroxypropylcellulose) (HPC) 107 % of control

O=C(O)C(Cc1ccc(O)cc1)NC(=O)C1CCCN1C(=O)OCc1ccccc1 (stereo not drawn) (Cbz-Pro-Tyr-OH; configuration not given here)
inactive: [1] 96 % of control | [2] 96 % of control | [3] 96 % of control

CCN1C(=O)CCN(S(=O)(=O)c2ccc(-n3nc(C)cc3C)cc2)C1=S
inactive: dose: 50.0 mg/kg/injection, schedule: Q01DX005 (ip), vehicle: saline with Tween-80 99 % of control | dose: 100.0 mg/kg/injection, schedule: Q01DX005 (ip), vehicle: saline with Tween-80 95 % of control | dose: 200.0 mg/kg/injection, schedule: Q01DX005 (ip), vehicle: saline with Tween-80 103 % of control

Cc1cccc(C(=O)OCCBr)c1
inactive: dose: 18.75 mg/kg/injection, schedule: Q01DX009 (ip), vehicle: saline sonified 104 % of control | dose: 37.5 mg/kg/injection, schedule: Q01DX009 (ip), vehicle: saline sonified 109 % of control | dose: 49.5 mg/kg/injection, schedule: Q01DX009 (ip), vehicle: saline sonified 109 % of control | dose: 75.0 mg/kg/injection, schedule: Q01DX009 (ip), vehicle: saline sonified 104 % of control | dose: 112.5 mg/kg/injection, schedule: Q01DX009 (ip), vehicle: saline sonified 104 % of control

CCOP(=O)(NN)OCC
inactive: dose: 25.0 mg/kg/injection, schedule: Q04DX003 (ip), vehicle: saline 114 % of control | dose: 50.0 mg/kg/injection, schedule: Q04DX003 (ip), vehicle: saline 97 % of control | dose: 100.0 mg/kg/injection, schedule: Q04DX003 (ip), vehicle: saline 106 % of control | dose: 200.0 mg/kg/injection, schedule: Q04DX003 (ip), vehicle: saline 103 % of control

CC(C)(C)c1ccc(-c2cc3nc(C(F)(F)F)cc(=O)n3[nH]2)cc1
inactive: [4] 89 % of control | [5] 89 % of control | [6] 100 % of control

S=C(S)N(Cc1ccccc1)Cc1ccccc1 (tested in a mixture with another compound)
inactive: [4] 105 % of control | [5] 105 % of control | [6] 101 % of control

CCOC(=O)c1ccc(NC(=O)Oc2ccc(C(=O)OC)cc2)cc1
inactive: [4] 103 % of control | [5] 100 % of control | [6] 103 % of control

Cc1noc(-c2ccccc2)c1N=Nc1ccccc1
inactive: dose: 100.0 mg/kg/injection, schedule: Q01DX001 (ip), vehicle: Klucel (hydroxypropylcellulose) (HPC) 99 % of control | dose: 200.0 mg/kg/injection, schedule: Q01DX001 (ip), vehicle: Klucel (hydroxypropylcellulose) (HPC) 105 % of control | dose: 400.0 mg/kg/injection, schedule: Q01DX001 (ip), vehicle: Klucel (hydroxypropylcellulose) (HPC) 93 % of control

O=S(=O)(Cc1ccccc1)/N=C\c1ccc(Cl)cc1
inactive: dose: 50.0 mg/kg/injection, schedule: Q01DX009 (ip), vehicle: Klucel (hydroxypropylcellulose) (HPC) 95 % of control | dose: 100.0 mg/kg/injection, schedule: Q01DX009 (ip), vehicle: Klucel (hydroxypropylcellulose) (HPC) 103 % of control | dose: 200.0 mg/kg/injection, schedule: Q01DX009 (ip), vehicle: Klucel (hydroxypropylcellulose) (HPC) 104 % of control

CN1CCC/C1=C\C(=O)c1ccncc1
inactive: [1] 96 % of control | [2] 112 % of control | [3] 124 % of control
